# Reference: ChEMBL document CHEMBL1811761, “Recent advances in drug discovery of benzothiadiazine and related analogs as HCV NS5B polymerase inhibitors” (Bioorg Med Chem, 2011)
# pEC50: −log10 of the molar value.
# Assays:
# Hepatitis C virus = test: Antiviral activity against HCV 1b N infected in human HuH7 cells assessed as inhibition of viral RNA replication after 3 days by RT-PCR analysis; assay type: functional, organism-based, Hepacivirus hominis; conditions: genotype 1b strain N, Huh-7, 72 h
# Huh-7 = test: Cytotoxicity against human HuH7 cells up to […]; assay type: cell-based
pEC50 (Hepatitis C virus),Compound,Activity (Huh-7)
7.00,O=c1c(C2=NS(=O)(=O)c3ccccc3N2)c(O)c2ccccc2n1NC1CCC1,
7.00,O=c1c(C2=NS(=O)(=O)c3ccccc3N2)c(O)c2ccccc2n1NC1CC1,
7.15,NC(=O)COc1ccc2c(c1)S(=O)(=O)N=C(c1c(O)c3ccccc3n(NC3CCC3)c1=O)N2,Non-toxic
